Data taken from patent US20100317850A1 (priority 2008, published 2010).

Test system: Aβ42 production
Test: Quantification of Aβ peptide in culture of neurons from rat fetus brain (Aβ ELISA)
Assay type: cell-based
Details: Neuron, 72 h; rat primary neuronal culture (cerebral cortex, embryonic day 18 Wistar rats); medium collected three days after addition of the compound; Aβx-42 ELISA; read-out: Aβ42 production reducing effect IC50
Outline: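 Primary cortical neurons from embryonic day 18 Wistar rats were cultured 4 days, then exposed to compound in Neurobasal/B27 without 2-ME, final DMSO ≤1%. After three days, medium was collected and Aβx-42 measured undiluted by sandwich ELISA.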

| SMILES | IC50 [µM] |
| --- | --- |
| COc1cnc(C(=O)Nc2ccc(F)c([C@]34CCCC[C@H]3CSC(N)=N4)c2)cn1 (single isomer, unassigned) [Example 107, N-[3-((4aR*,8aS*)-2-amino-4,4a,5,6,7,8-hexahydrobenzo[d][1,3]thiazin-8a-yl)-4-fluorophenyl]-5-methoxypyrazine-2-carboxamide] | 0.017 |
| NC1=N[C@@]2(c3cc(NC(=O)c4ccc(C#CC5CC5)cn4)ccc3F)CCC[C@H]2CS1 (single isomer, unassigned) [Example 132, N-[3-((4aR*,7aS*)-2-amino-4a,5,6,7-tetrahydro-4H-cyclopenta[d][1,3]thiazin-7a-yl)-4-fluorophenyl]-5-cyclopropylethynyl-pyridine-2-carboxamide] | 0.044 |
| NC1=N[C@@]2(c3cc(NC(=O)c4ccc(-c5nccs5)cn4)ccc3F)CCC[C@H]2CS1 (single isomer, unassigned) [Example 133, N-[3-((4aR*,7aS*)-2-amino-4a,5,6,7-tetrahydro-4H-cyclopenta[d][1,3]thiazin-7a-yl)-4-fluorophenyl]-5-thiazol-2-yl-pyridine-2-carboxamide] | 0.063 |
| CSc1cnc(C(=O)Nc2ccc(F)c([C@]34CCC[C@H]3CSC(N)=N4)c2)cn1 (single isomer, unassigned) [Example 135, N-[3-((4aR*,7aS*)-2-amino-4a,5,6,7-tetrahydro-4H-cyclopenta[d][1,3]thiazin-7a-yl)-4-fluorophenyl]-5-methylsulfanyl-pyrazine-2-carboxamide] | 0.015 |
| COCC#Cc1ccc(C(=O)Nc2ccc(F)c([C@]34CCC[C@H]3CSC(N)=N4)c2)nc1 (single isomer, unassigned) [Example 136, N-[3-((4aR*,7aS*)-2-amino-4a,5,6,7-tetrahydro-4H-cyclopenta[d][1,3]thiazin-7a-yl)-4-fluorophenyl]-5-(3-methoxypropyn-1-yl)-pyridine-2-carboxamide] | 0.025 |
| NC1=N[C@@]2(c3cc(NC(=O)c4nccs4)ccc3F)CCC[C@H]2CS1 (single isomer, unassigned) [Example 137, N-[3-((4aR*,7aS*)-2-amino-4a,5,6,7-tetrahydro-4H-cyclopenta[d][1,3]thiazin-7a-yl)-4-fluorophenyl]-thiazole-2-carboxamide] | 0.047 |
| NC1=N[C@@]2(c3cc(NC(=O)c4ccc(C(F)F)cn4)ccc3F)CCC[C@H]2CS1 (single isomer, unassigned) [Example 141, N-[3-((4aR*,7aS*)-2-amino-4a,5,6,7-tetrahydro-4H-cyclopenta[d][1,3]thiazin-7a-yl)-4-fluorophenyl]-5-difluoromethylpyridine-2-carboxamide] | 0.016 |
| NC1=N[C@@]2(c3cc(NC(=O)c4ccc(Br)cn4)ccc3F)CCOC[C@H]2CS1 (single isomer, unassigned) [Example 142, N-[3-((4aS*,8aS*)-2-amino-4a,5,7,8-tetrahydro-4H-6-oxa-3-thia-1-azanaphthalen-8a-yl)-4-fluorophenyl]-5-bromopyridine-2-carboxamide] | 0.01 |
| NC1=N[C@@]2(c3cc(NC(=O)c4ncc(F)cc4F)ccc3F)CCC[C@H]2CS1 (single isomer, unassigned) [Example 168, N-[3-((4aR*,7aS*)-2-amino-4a,5,6,7-tetrahydro-4H-cyclopenta[d][1,3]thiazin-7a-yl)-4-fluorophenyl]-3,5-difluoropyridine-2-carboxamide] | 0.016 |
| NC1=N[C@@]2(c3cc(NC(=O)c4ccc(C(F)(F)F)cn4)ccc3F)CCC[C@H]2CS1 (single isomer, unassigned) [Example 169, N-[3-((4aR*,7aS*)-2-amino-4a,5,6,7-tetrahydro-4H-cyclopenta[d][1,3]thiazin-7a-yl)-4-fluorophenyl]-5-trifluoromethylpyridine-2-carboxamide] | 0.027 |
| NC1=N[C@@]2(c3cc(NC(=O)c4ncccc4C(F)(F)F)ccc3F)CCC[C@H]2CS1 (single isomer, unassigned) [Example 170, N-[3-((4aR*,7aS*)-2-amino-4a,5,6,7-tetrahydro-4H-cyclopenta[d][1,3]thiazin-7a-yl)-4-fluorophenyl]-3-trifluoromethylpyridine 2-carboxamide] | 0.21 |
| NC1=N[C@@]2(c3cc(NC(=O)c4ncccc4F)ccc3F)CCC[C@H]2CS1 (single isomer, unassigned) [Example 171, N-[3-((4aR*,7aS*)-2-amino-4a,5,6,7-tetrahydro-4H-cyclopenta[d][1,3]thiazin-7a-yl)-4-fluorophenyl]-3-fluoropyridine-2-carboxamide] | 0.089 |
| NC1=N[C@@]2(c3cc(NC(=O)c4ccc(Br)cn4)ccc3F)CCC[C@H]2CS1 (single isomer, unassigned) [Example 172, N-[3-((4aR*,7aS*)-2-amino-4a,5,6,7-tetrahydro-4H-cyclopenta[d][1,3]thiazin-7a-yl)-4-fluorophenyl]-5-bromopyridine-2-carboxamide] | 0.007 |
| NC1=N[C@@]2(c3cc(NC(=O)c4ncccc4Br)ccc3F)CCC[C@H]2CS1 (single isomer, unassigned) [Example 173, N-[3-((4aR*,7aS*)-2-amino-4a,5,6,7-tetrahydro-4H-cyclopenta[d][1,3]thiazin-7a-yl)-4-fluorophenyl]-3-bromopyridine-2-carboxamide] | 0.072 |
| COc1ccc(C(=O)Nc2ccc(F)c([C@]34CCC[C@H]3CSC(N)=N4)c2)nc1 (single isomer, unassigned) [Example 174, N-[3-((4aR*,7aS*)-2-amino-4a,5,6,7-tetrahydro-4H-cyclopenta[d][1,3]thiazin-7a-yl)-4-fluorophenyl]-5-methoxypyridine-2-carboxamide] | 0.011 |
| NC1=N[C@@]2(c3cc(NC(=O)c4ccc(OC(F)F)cn4)ccc3F)CCC[C@H]2CS1 (single isomer, unassigned) [Example 175, N-[3-((4aR*,7aS*)-2-amino-4a,5,6,7-tetrahydro-4H-cyclopenta[d][1,3]thiazin-7a-yl)-4-fluorophenyl]-5-difluoromethoxypyridine-2-carboxamide] | 0.009 |
| NC1=N[C@@]2(c3cc(NC(=O)c4ncc(Br)cn4)ccc3F)CCC[C@H]2CS1 (single isomer, unassigned) [Example 176, N-[3-((4aR*,7aS*)-2-amino-4a,5,6,7-tetrahydro-4H-cyclopenta[d][1,3]thiazin-7a-yl)-4-fluorophenyl]-5-bromopyrimidine-2-carboxamide] | 0.01 |
| COc1cnc(C(=O)Nc2ccc(F)c([C@]34CCC[C@H]3CSC(N)=N4)c2)cn1 (single isomer, unassigned) [Example 177, N-[3-((4aR*,7aS*)-2-amino-4a,5,6,7-tetrahydro-4H-cyclopenta[d][1,3]thiazin-7a-yl)-4-fluorophenyl]-5-methoxypyrazine-2-carboxamide] | 0.018 |
| NC1=N[C@@]2(c3cc(NC(=O)c4cnc(OCC(F)(F)F)cn4)ccc3F)CCC[C@H]2CS1 (single isomer, unassigned) [Example 178, N-[3-((4aR*,7aS*)-2-amino-4a,5,6,7-tetrahydro-4H-cyclopenta[d][1,3]thiazin-7a-yl)-4-fluorophenyl]-5-(2,2,2-trifluoroethoxy)-pyrazine-2-carboxamide] | 0.044 |
